The target of assay [1] is Beta5 (purified human constitutive proteasome) (Homo sapiens, UniProt P28074). Kind of assay: Determination of Beta5 activity (fluorescence intensity assay, Suc-LLVY-AMC). In kind it is biochemical. To be noted: purified human constitutive proteasome 1.0 nM, 40 μM Suc-LLVY-AMC, 37° C. Here is the method:
Measurement of Beta5 inhibition is performed in 384 well format based on fluorescence intensity assay.
Purified human constitutive proteasome (1.0 nM) and serial diluted compounds in DMSO (range of concentrations from 10 μM to 38 pM) or controls (0.5% DMSO) are incubated for 30 minutes at 37° C. in assay buffer containing 50 mM Tris pH 7.4 and 0.03% SDS. The reaction is initiated by the addition of the fluorogenic peptide substrate, Suc-LLVY-AMC (Bachem 1-1395), at a concentration of 40 μM. After 90 minutes of incubation at 37° C., fluorescence intensity is measured at λex=350 nm and λem=450 nm with a fluorescence reader (BMG Pherastar reader or equivalent).

The target in assay [2] is LMP7 (purified human immuno proteasome) (Homo sapiens, UniProt P28062). Kind of assay: Determination of LMP7 activity (fluorescence intensity assay, Suc-LLVY-AMC). In kind it is biochemical. To be noted: for IC50: purified human immuno proteasome 0.5 nM, 40 μM Suc-LLVY-AMC, 37° C. As to the method:
Measurement of LMP7 inhibition is performed in 384 well format based on fluorescence intensity assay.
Purified human immuno proteasome (0.5 nM) and serial diluted compounds in DMSO (range of concentrations from 10 μM to 38 pM) or controls (0.5% DMSO) are incubated for 30 minutes at 37° C. in assay buffer containing 50 mM Tris pH 7.4 and 0.03% SDS. The reaction is initiated by the addition of the fluorogenic peptide substrate, Suc-LLVY-AMC (Bachem I-1395), at a concentration of 40 μM. After 90 minutes of incubation at 37° C., fluorescence intensity is measured at λex=350 nm and λem=450 nm with a fluorescence reader (BMG Pherastar reader or equivalent).
Purified human immuno proteasome (0.25 nM) and serial diluted compounds in DMSO (range of concentrations from 10 μM to 38 pM) or controls (0.5% DMSO) are incubated for 30 minutes at 37° C. in assay buffer containing 50 mM Tris pH 7.4 and 0.03% SDS. The reaction is initiated by the addition of the fluorogenic peptide substrate, Suc-LLVY-AMC (Bachem I-1395), at a concentration of 40 μM. After 90 minutes of incubation at 37° C., fluorescence intensity is measured at λex=350 nm and λem=450 nm with a fluorescence reader (BMG Pherastar reader or equivalent).

Bounds are passed on as bounds.

In the case of `COc1ccc(C(=O)CCC(=O)N[C@@H](Cc2cc(F)cc(OC)c2)B(O)O)cc1` [Example 47, (R)-(2-(3-fluoro-5-methoxyphenyl)-1-(4-(4-methoxyphenyl)-4-oxobutanamido)ethyl)boronic acid], in assay [1], the IC50 is over 5000 nM. Also, in assay [2], the “Selectivity LMP7 vs Beta5” value is given as “+++ (+++: Selectivity > 30)” and the IC50 was in the range of 50 to 500 nM.

Turning to `COc1ccc(C(=O)CCC(=O)N[C@@H](Cc2cccc(OC(F)(F)F)c2)B(O)O)cc1` [Example 48, (R)-(1-(4-(4-methoxyphenyl)-4-oxobutanamido)-2-(3-(trifluoromethoxy)phenyl)ethyl)boronic acid], the IC50 in assay [1] is 500 to 5000 nM. In assay [2], the “Selectivity LMP7 vs Beta5” value is on record as “++ (++: 10 < Selectivity < 30)” and the IC50 is 50 to 500 nM.

`COc1ccc(C(=O)CC(Cc2ccccc2)C(=O)N[C@@H](Cc2cc(F)cc(OC)c2)B(O)O)cc1` (stereo partly drawn) [Example 49, ((1R)-1-(2-benzyl-4-(4-methoxyphenyl)-4-oxobutanamido)-2-(3-fluoro-5-methoxyphenyl)ethyl)boronic acid] came in with an IC50 in assay [1] of 50 to 500 nM. In assay [2], the “Selectivity LMP7 vs Beta5” value is listed as “++ (++: 10 < Selectivity < 30)” and the IC50 was under 50 nM.

Regarding `COc1ccc(C(=O)CCC(=O)N[C@@H](Cc2ccc(F)c(C(F)(F)F)c2)B(O)O)cc1` [Example 50, (R)-(2-(4-fluoro-3-(trifluoromethyl)phenyl)-1-(4-(4-methoxyphenyl)-4-oxobutanamido)ethyl)boronic acid], in assay [1], the IC50 is over 5000 nM. Further, in assay [2], the “Selectivity LMP7 vs Beta5” value was “++ (++: 10 < Selectivity < 30)” and the IC50 lay within 50 to 500 nM.

For the compound `O=C(CCn1cnc2ccccc21)N[C@@H](Cc1ccc(OC(F)(F)F)cc1)B(O)O` [Example 51, (R)-(1-(3-(1H-benzo[d]imidazol-1-yl)propanamido)-2-(4-(trifluoromethoxy)phenyl)ethyl)boronic acid], the values for the IC50 in assay [1] and in assay [2] were 50 to 500 nM and under 50 nM, respectively. Besides, the “Selectivity LMP7 vs Beta5” value in assay [2] is reported as “+ (+: Selectivity < 10)”.

As for `CCc1cccc(C[C@H](NC(=O)CCn2cc(-c3ccccc3)nn2)B(O)O)c1` [Example 52, (R)-(2-(3-ethylphenyl)-1-(3-(4-phenyl-1H-1,2,3-triazol-1-yl)propanamido)ethyl)boronic acid], the IC50 was 50 to 500 nM in assay [1] and under 50 nM in assay [2]. The “Selectivity LMP7 vs Beta5” value in assay [2] is “+++ (+++: Selectivity > 30)”.

`COc1ccc(C[C@H](NC(=O)CCn2cnc3ccccc32)B(O)O)cc1C(F)(F)F` [Example 53, (R)-(1-(3-(1H-benzo[d]imidazol-1-yl)propanamido)-2-(4-methoxy-3-(trifluoromethyl)phenyl)ethyl)boronic acid]: the IC50 in assay [1] was 50 to 500 nM; in assay [2] it was under 50 nM. The “Selectivity LMP7 vs Beta5” value in assay [2] is recorded as “+ (+: Selectivity < 10)”.

Regarding `CCc1cccc(C[C@H](NC(=O)CCn2c(C)nc3ccccc32)B(O)O)c1` [Example 54, (R)-(2-(3-ethylphenyl)-1-(3-(2-methyl-1H-benzo[d]imidazol-1-yl)propanamido)ethyl)boronic acid], the IC50 in assay [1] was 50 to 500 nM. Also, in assay [2], the “Selectivity LMP7 vs Beta5” value is “++ (++: 10 < Selectivity < 30)” and the IC50 is under 50 nM.

With `Cc1nc2ccccc2n1CCC(=O)N[C@@H](Cc1ccsc1)B(O)O` [Example 55, (R)-(1-(3-(2-methyl-1H-benzo[d]imidazol-1-yl)propanamido)-2-(thiophen-3-yl)ethyl)boronic acid], the IC50 in assay [1] lay in the range of 50 to 500 nM. Further, in assay [2], the “Selectivity LMP7 vs Beta5” value is listed as “+ (+: Selectivity < 10)” and the IC50 was under 50 nM.

On to `COc1ccc(C[C@H](NC(=O)CCc2noc(-c3ccccc3)n2)B(O)O)cc1C(F)(F)F` [Example 56, (R)-(2-(4-methoxy-3-(trifluoromethyl)phenyl)-1-(3-(5-phenyl-1,2,4-oxadiazol-3-yl)propanamido)ethyl)boronic acid], for which the IC50 in assay [1] is 500 to 5000 nM. In assay [2], the “Selectivity LMP7 vs Beta5” value is listed as “++ (++: 10 < Selectivity < 30)” and the IC50 fell in the range of 50 to 500 nM.

Compound `COc1cc(F)cc(C[C@H](NC(=O)CCn2cnc3ccccc32)B(O)O)c1` [Example 57, (R)-(1-(3-(1H-benzo[d]imidazol-1-yl)propanamido)-2-(3-fluoro-5-methoxyphenyl)ethyl)boronic acid] displayed an IC50 in assay [1] of 50 to 500 nM. For the same compound, in assay [2], the “Selectivity LMP7 vs Beta5” value was “++ (++: 10 < Selectivity < 30)” and the IC50 was under 50 nM.

As to `CCc1cccc(C[C@H](NC(=O)CCc2cn(-c3ccccc3)nn2)B(O)O)c1` [Example 58, (R)-(2-(3-ethylphenyl)-1-(3-(1-phenyl-1H-1,2,3-triazol-4-yl)propanamido)ethyl)boronic acid], the IC50 in assay [1] was over 5000 nM; in assay [2], 50 to 500 nM. Moreover, in assay [2], the “Selectivity LMP7 vs Beta5” value is given as “+++ (+++: Selectivity > 30)”.

As for `O=C(CCn1cnc2ccccc21)N[C@@H](Cc1cccc(OC(F)(F)F)c1)B(O)O` [Example 59, (R)-(1-(3-(1H-benzo[d]imidazol-1-yl)propanamido)-2-(3-(trifluoromethoxy)phenyl)ethyl)boronic acid], the IC50 is 50 to 500 nM in assay [1] and under 50 nM in assay [2]. Moreover, the “Selectivity LMP7 vs Beta5” value in assay [2] is “+ (+: Selectivity < 10)”.

For the compound `O=C(CCc1noc(-c2ccccc2)n1)N[C@@H](Cc1cccc(OC(F)(F)F)c1)B(O)O` [Example 60, (R)-(1-(3-(5-phenyl-1,2,4-oxadiazol-3-yl)propanamido)-2-(3-(trifluoromethoxy)phenyl)ethyl)boronic acid], the IC50 in assay [1] lay in the range of 500 to 5000 nM. Besides, in assay [2], the “Selectivity LMP7 vs Beta5” value is recorded as “++ (++: 10 < Selectivity < 30)” and the IC50 fell in the range of 50 to 500 nM.

On to `COc1cc(F)cc(C[C@H](NC(=O)CCc2noc(-c3ccccc3)n2)B(O)O)c1` [Example 61, (R)-(2-(3-fluoro-5-methoxyphenyl)-1-(3-(5-phenyl-1,2,4-oxadiazol-3-yl)propanamido)ethyl)boronic acid], for which the IC50 in assay [1] lay within 500 to 5000 nM. Further, in assay [2], the “Selectivity LMP7 vs Beta5” value was “+++ (+++: Selectivity > 30)” and the IC50 was under 50 nM.

In turn, `O=C(N[C@@H](Cc1ccsc1)B(O)O)[C@H](Cc1ccccc1)Cc1cn(-c2ccccc2)nn1` [Example 62, ((R)-1-((R)-2-benzyl-3-(1-phenyl-1H-1,2,3-triazol-4-yl)propanamido)-2-(thiophen-3-yl)ethyl)boronic acid] registered an IC50 in assay [1] of 50 to 500 nM. In addition, in assay [2], the “Selectivity LMP7 vs Beta5” value is “++ (++: 10 < Selectivity < 30)” and the IC50 was under 50 nM.

Take `O=C(N[C@@H](Cc1ccsc1)B(O)O)[C@@H](Cc1ccccc1)Cc1cn(-c2ccccc2)nn1` [Example 63, ((R)-1-((S)-2-benzyl-3-(1-phenyl-1H-1,2,3-triazol-4-yl)propanamido)-2-(thiophen-3-yl)ethyl)boronic acid]: in assay [1], the IC50 is under 50 nM. In addition, in assay [2], the “Selectivity LMP7 vs Beta5” value is reported as “++ (++: 10 < Selectivity < 30)” and the IC50 was under 50 nM.

As to `O=C(CCn1cnc2ccccc21)N[C@@H](Cc1ccc(F)c(C(F)(F)F)c1)B(O)O` [Example 64, (R)-(1-(3-(1H-benzo[d]imidazol-1-yl)propanamido)-2-(4-fluoro-3-(trifluoromethyl)phenyl)ethyl)boronic acid], the IC50 in assay [1] is 50 to 500 nM; in assay [2], under 50 nM. In addition, the “Selectivity LMP7 vs Beta5” value in assay [2] is listed as “++ (++: 10 < Selectivity < 30)”.

Turning to `COc1cc(F)cc(C[C@H](NC(=O)CCn2cc(-c3ccccc3)nn2)B(O)O)c1` [Example 65, (R)-(2-(3-fluoro-5-methoxyphenyl)-1-(3-(4-phenyl-1H-1,2,3-triazol-1-yl)propanamido)ethyl)boronic acid], the IC50 in assay [1] is 50 to 500 nM; in assay [2] it was under 50 nM. Also, the “Selectivity LMP7 vs Beta5” value in assay [2] was “++ (++: 10 < Selectivity < 30)”.

In assay [1], `CCOc1cccc(C[C@H](NC(=O)CCn2cnc3ccccc32)B(O)O)c1` [Example 67, (R)-(1-(3-(1H-benzo[d]imidazol-1-yl)propanamido)-2-(3-ethoxyphenyl)ethyl)boronic acid] registered a concentration for half-maximal inhibition (IC50) of 50 to 500 nM. Further, in assay [2], the “Selectivity LMP7 vs Beta5” value was “++ (++: 10 < Selectivity < 30)” and the IC50 is under 50 nM.

In assay [1], `CCOc1cccc(C[C@H](NC(=O)CCc2noc(-c3ccccc3)n2)B(O)O)c1` [Example 68, (R)-(2-(3-ethoxyphenyl)-1-(3-(5-phenyl-1,2,4-oxadiazol-3-yl)propanamido)ethyl)boronic acid] returned an IC50 of 500 to 5000 nM. Besides, in assay [2], the “Selectivity LMP7 vs Beta5” value is “+++ (+++: Selectivity > 30)” and the IC50 is under 50 nM.

What is called IC50 is the concentration that inhibits the measured activity by half. Lower therefore signals greater potency.

These data come from patent publication US9688702B2, “Alpha-amino boronic acid derivatives, selective immunoproteasome inhibitors” (Ares Trading S.A, priority 2011, dated 2017).
